Data taken from PubChem BioAssay (NCI).
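Protocol summary: plate cells (96-well), add compound at 5 concentrations, incubate 48 h, interpolate endpoints linearly. GI50: concentration for 50% inhibition of growth. TGI is the concentration that stops growth completely.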

Experiments:
Assay in all cases: NCI anticancer screen, dose series, 48 h
CCRF-CEM leukemia = test system: CCRF-CEM leukemia
DU-145 prostate = test system: DU-145 prostate
NCI-H226 lung = test system: NCI-H226 lung
HCT-15 colon = test system: HCT-15 colon
EKVX NSCLC = test system: EKVX NSCLC
BT-549 breast = test system: BT-549 breast
ACHN renal = test system: ACHN renal
MDA-MB-435 = test system: MDA-MB-435
SW-620 colon = test system: SW-620 colon
U251 CNS = test system: U251 CNS
786-0 renal = test system: 786-0 renal
IGROV1 ovarian = test system: IGROV1 ovarian
HOP-92 NSCLC = test system: HOP-92 NSCLC

| Structure (SMILES) | TGI (CCRF-CEM leukemia) [µM] | TGI (DU-145 prostate) [µM] | TGI (NCI-H226 lung) [µM] | TGI (HCT-15 colon) [µM] | TGI (EKVX NSCLC) [µM] | TGI (BT-549 breast) [µM] | TGI (ACHN renal) [µM] | TGI (MDA-MB-435) [µM] | TGI (SW-620 colon) [µM] | TGI (U251 CNS) [µM] | TGI (786-0 renal) [µM] | TGI (IGROV1 ovarian) [µM] | TGI (HOP-92 NSCLC) [µM] | GI50 (CCRF-CEM leukemia) [µM] | GI50 (HOP-92 NSCLC) [µM] | GI50 (MDA-MB-435) [µM] |
| --- | --- | --- | --- | --- | --- | --- | --- | --- | --- | --- | --- | --- | --- | --- | --- | --- |
| COc1cccc2c1CCc1sc(CN3CCN(C)CC3)nc1-2 | 53.5 | > 100 | > 100 | > 100 | > 100 | > 100 | > 100 | > 100 | > 100 | > 100 | > 100 | > 100 | – | – | – | – |
| COC(=O)c1cc(NC(=O)Cn2c3ccccc3c3ccccc32)cn1C | > 100 | > 100 | 58.5 | > 100 | > 100 | 71.3 | > 100 | > 100 | > 100 | > 100 | 72.2 | > 100 | – | – | – | – |
| O=c1oc2c(Cl)cc(Cl)cc2cc1-c1cn2c(n1)sc1ccccc12 | 55.6 | > 100 | – | > 100 | > 100 | 87.4 | > 100 | > 100 | 92.4 | > 100 | > 100 | > 100 | > 100 | – | – | – |
| C#CCN(Cc1ccc2nc(-c3ccccc3)c(Cl)nc2c1)c1ccc(Cl)c(Cl)c1 | > 100 | – | – | > 100 | > 100 | – | > 100 | – | > 100 | > 100 | > 100 | > 100 | > 100 | – | – | – |
| COc1ccc(CNCCN2C(=O)c3ccc4c5c(ccc(c35)C2=O)C(=O)N(CCNCc2ccc(OC)c(OC)c2OC)C4=O)c(OC)c1OC | 50 | – | – | – | – | – | – | 0.801 | – | – | – | – | 3.44 | 0.273 | 1.56 | 0.25 |
| Cc1ccnc2[nH]c(-c3ccc(Cl)cc3)cc(=O)c12 | > 100 | > 100 | > 30.7 | > 100 | > 100 | > 100 | > 100 | – | > 100 | > 100 | > 100 | > 100 | > 100 | – | – | – |
| CCC(/C(=N/NC(=O)C[N+](C)(C)C)c1ccccc1)C1OC(=O)c2ccccc21 (configuration not stated) | > 100 | – | > 100 | > 100 | – | – | > 100 | – | > 100 | > 100 | > 100 | > 100 | > 100 | – | – | – |
| Nc1nc2c(nnn2C2C=C(CO)C(O)C2O)c(=O)[nH]1 (configuration not stated) | > 100 | – | > 100 | > 100 | > 100 | – | > 100 | – | > 100 | > 100 | > 100 | > 100 | > 100 | – | – | – |
| O=C1C2=C(c3ccccc31)C(c1ccc([N+](=O)[O-])cc1)NC(=S)N2 (configuration not stated) | > 100 | – | > 100 | > 100 | > 100 | – | > 100 | – | > 100 | > 100 | > 100 | > 100 | > 100 | – | – | – |
| N#Cc1cc([N+](=O)[O-])ccc1NC(=O)C(=O)Nn1c(=S)[nH]c2ccccc2c1=O | > 100 | – | > 100 | > 100 | > 100 | – | – | – | > 100 | > 100 | > 100 | > 100 | > 100 | – | – | – |
| O=C(C#Cc1ccccc1)Nc1ccccc1CC(c1c[nH]c2ccccc12)c1c[nH]c2ccccc12 | 20 | – | 35.2 | – | 86.1 | – | – | – | 27.4 | – | 29.4 | 98.8 | – | – | – | – |
| COc1cc2ccnc3c2c(c1OC)N(C)C=C3 | – | > 100 | 54.1 | > 100 | 61.6 | 87.8 | 46.4 | 80.4 | > 100 | > 100 | 53.6 | – | – | – | – | – |
| CC(C)c1cccc(C(C)C)c1NC(=O)/C(Cc1nc2ccc(Cl)cc2[nH]c1=O)=N\NC(=O)C[N+](C)(C)C | > 100 | – | – | – | > 100 | – | > 100 | – | > 100 | – | > 100 | > 100 | > 100 | – | – | – |
| CC(=O)Nc1ccc(S(=O)(=O)Nc2cnc3ccccc3n2)cc1 | > 100 | – | > 100 | > 100 | > 100 | – | > 100 | – | > 100 | > 100 | > 100 | > 100 | > 100 | – | – | – |
| Nc1nc(Cl)cc(OCC2(CO)CCCCC2)n1 | > 100 | > 100 | > 100 | > 100 | > 100 | – | > 100 | > 100 | > 100 | > 100 | > 100 | > 100 | > 100 | – | – | – |
| Cc1ccc(C2=C(c3ccccc3)C(O)(c3ccccc3)C(c3ccccc3)=C2c2ccc(C)cc2)cc1 | – | – | > 100 | > 100 | > 100 | – | > 100 | – | > 100 | > 100 | > 100 | > 100 | – | – | – | – |
| O=C(Cn1cc(I)c(C(=O)NCC(O)CO)n1)NCC(O)CO (configuration not stated) | > 100 | – | > 100 | > 100 | > 100 | – | > 100 | – | > 100 | > 100 | > 100 | > 100 | > 100 | – | – | – |
| c1ccc(C2SCc3nc4ccccc4n32)cc1 (configuration not stated) | > 100 | – | > 100 | > 100 | > 100 | – | > 100 | – | > 100 | > 100 | > 100 | > 100 | > 100 | – | – | – |
| CCOC(=O)C1=C(C)NC(c2ccccc2)=C(C(=O)OCc2ccccc2)C1C#Cc1ccccc1 (configuration not stated) | > 100 | > 100 | > 100 | > 100 | > 100 | > 100 | – | > 100 | > 100 | > 100 | > 100 | > 100 | – | – | – | – |
| CC(C)C(N=C1CC2CCC1(C(=O)Nc1ccccc1O)C2(C)C)c1ccccc1 (configuration not stated) | > 10 | – | > 10 | > 10 | > 10 | – | > 10 | – | > 10 | > 10 | > 10 | > 10 | > 10 | – | – | – |
| C#CCn1c(=O)c2cc(OC)c(OC)cc2n(CC#C)c1=O | > 10 | > 10 | > 10 | > 10 | > 10 | – | > 10 | > 10 | > 10 | > 10 | > 10 | > 10 | > 10 | – | – | – |
